Results as given in US8691761B2, “Somatostatin receptor 2 antagonists” (priority 2006, dated 2014).

Key:
hSSTR1 = biological target: T1, hSSTR1 (Homo sapiens, UniProt P30872); assay: Receptor autoradiography, displacement of 125I-[Leu8,D-Trp22,Tyr25]-SRIF-28 from membrane pellet sections; type: binding; details: Table 3; mean ± SEM when N ≧ 3; read-out: sst1 binding affinity (IC50)
T1 construct: expressed in transfected cells; host or cells: CHO-K1 or CCL39 cells
Description: (§1) Generally, recombinant cells expressing the receptor are washed and homogenized to prepare a crude protein homogenate in a suitable buffer. In a typical assay, an amount of protein from the cell homogenate is placed into a small volume of an appropriate assay buffer at an appropriate pH. Candidate substances, such as potential SRIF agonists and antagonists, are added to the admixture in convenient concentrations, and the interaction between the candidate substance and the receptor polypeptide is monitored.
(§2) In vitro Bioassay: The effects of the various somatostatin analogs were tested in vitro for their ability to bind to isolated cloned receptors expressed on CHO-K1 cells and CCL39 cells. The molecular cloning of the genes encoding multiple somatostatin receptor subtypes permitted the individual expression of these receptors in mammalian cells and the characterization of their respective pharmacological profiles.
(§3) CHO-K1 cells were grown in Ham's F-12 medium, and CCL39 cells were grown in Dulbecco's modified Eagle's medium/Ham's F-12(1:1) mix, supplemented with 10% fetal bovine serum, 100 U/ml penicillin and 100 μg/ml streptomycin, in humidified air containing 5% CO2 at 37° C. Cells were washed twice with and scraped into ice-cold 0.05 M Tris-HCl (pH 7.4), collected by centrifugation, and homogenized using a rotor/stator/system in the same buffer. After centrifugation at 120 g for 5 min at 4° C., the supernatant was collected and centrifuged again at 48,000 g for 30 min at 4° C. The resulting pellet was resuspended in ice-cold Tris buffer, transferred into a microfuge tube, and centrifuged at 20,000 g for 15 min at 4° C. After withdrawal of the supernatant, the membrane pellet was stored at −80° C.
(§4) Receptor autoradiography was performed on 20 μm thick cryostat sections of the membrane pellets, mounted on microscope slides, and then stored at −20° C. […] Increasing concentrations of the unlabeled peptide were used ranging from 0.1-1000 nM. […] IC50 values were calculated after quantification of the data using a computer-assisted image processing system as known in this art.
(§5) The numbers in parentheses indicate the number of times the particular binding test was carried out.
(§6) Receptor autoradiography. Cell membrane pellets were prepared as previously described, and stored at −80° C. Receptor autoradiography was performed on 20-μm thick cryostat (Microm HM 500, Walldorf, Germany) sections of the membrane pellets, mounted on microscope slides, and then stored at −20° C. […] After a brief dip in distilled water to remove excess salts, the sections were dried quickly and exposed for 1 week to Kodak BioMax MR film. IC50 values were calculated after quantification of the data using a computer-assisted image processing system as described previously. […] (Reubi, J. C. “In vitro identification of vasoactive intestinal peptide receptors in human tumors: Implications for tumor imaging.” J. Nucl. Med. 1995, 36, 1846-1853).
(§7) To investigate their ssts binding properties, the peptides were tested for their ability to bind to cryostat sections from membrane pellets of cells expressing the five human ssts (Table 3).

hSSTR2 = biological target: T2, hSSTR2 (Homo sapiens, UniProt P30874); assay: as above; type: binding
T2 construct: expressed in transfected cells; host or cells: CHO-K1 or CCL39 cells
Description: as §1, §2, §3, §4, §5, §6, §7

hSSTR3 = biological target: T3, hSSTR3 (Homo sapiens, UniProt P32745); assay: as above; type: binding; details: Table 3; mean ± SEM when N ≧ 3; read-out: sst3 binding affinity (IC50)
T3 construct: expressed in transfected cells; host or cells: CHO-K1 or CCL39 cells
Description: as §1, §2, §3, §4, §5, §6, §7

hSSTR4 = biological target: T4, hSSTR4 (Homo sapiens, UniProt P31391); assay: as above; type: binding; details: Table 3; mean ± SEM when N ≧ 3; read-out: sst4 binding affinity (IC50)
T4 construct: expressed in transfected cells; host or cells: CHO-K1 or CCL39 cells
Description: as §1, §2, §3, §4, §5, §6, §7

hSSTR5 = biological target: T5, hSSTR5 (Homo sapiens, UniProt P35346); assay: as above; type: binding; details: Table 3; mean ± SEM when N ≧ 3; read-out: sst5 binding affinity (IC50)
T5 construct: expressed in transfected cells; host or cells: CHO-K1 or CCL39 cells
Description: as §1, §2, §3, §4, §5, §6, §7

human sst2A receptor = biological target: T6, human sst2A receptor (Homo sapiens, UniProt P30874); assay: Immunofluorescence-based sst2 internalization assay in HEK-sst2 cells; type: cell-based; details: n ≧ 2
T6 construct: expressed in transfected cells; host or cells: HEK293 (HEK-sst2)
Description: Immunofluorescence-based sst2 Internalization Assay. Immunofluorescence microscopy-based internalization assay for sst2 was performed with HEK-sst2 using the sst2-specific antibody R2-88 as described elsewhere herein. HEK-sst2 cells were treated either with vehicle alone, the sst2 agonist [Tyr^3]-octreotide at a concentration of 100 nM, [Tyr^3]-octreotide at a concentration of 100 nM in the presence of an excess of the SRIF analogues to be tested (100 times the concentration of [Tyr^3]-octreotide), or with the SRIF analogues to be tested alone at a concentration of 10 μM, and then processed for immunofluorescence microscopy as described previously.

sst2 = sst2 (Homo sapiens, UniProt P30874); assay: Calcium release assay in HEK-sst2 cells (Fluo-4NW); type: cell-based; design: expressed in transfected cells; host or cells: HEK293 (HEK-sst2); details: n ≧ 2
Description: Calcium release assay. Intracellular calcium release was measured in HEK-sst2 using the Fluo-4NW Calcium Assay kit as described previously (Magrys, et al. “The role of anti-alpha-enolase autoantibodies in pathogenicity of autoimmune-mediated retinopathy.” J. Clin. Immunol. 2007, 27, 181-192; Michel et al. “The Nef protein of human immunodeficiency virus is a broad-spectrum modulator of chemokine receptor cell surface levels that acts independently of classical motifs for receptor endocytosis and Galphai signaling.” Mol. Biol. Cell. 2006, 17, 3578-3590). In brief, HEK-sst2 cells were seeded (25,000 cells per well) in poly-D-lysine (20 μg/mL) coated 96 well plates and cultured for 1 day at 37° C. and 5% CO2 in culture medium. At the day of the experiment, the cells were washed with assay buffer (1×HBSS, 20 mM HEPES) containing 2.5 mM probenecid, and then loaded with 100 μL/well Fluo-4NW dye in assay buffer containing 2.5 mM probenecid for 30 min at 37° C. and 5% CO2 and then for further 30 min at room temperature. To measure the intracellular calcium mobilization after stimulation with the SRIF analogues to be tested, the dye-loaded cells were transferred to a SpectraMax M2^e (Molecular Devices, Sunnyvale, Calif.). Intracellular calcium mobilization was recorded in a kinetic for 60 sec at room temperature monitoring fluorescence emission at 520 nm (with λex=485 nm) in the presence of the analogues at the concentrations indicated. Maximum fluorescence (Fmax) was measured after the addition of 25 μM ionomycin. Baseline (control) measurements were taken for dye-loaded, untreated cells. Data are shown as percentage of Fmax (% Fmax) as reported previously. (Magrys, et al. J. Clin. Immunol. 2007, 27, 181-192; Michel et al. Mol. Biol. Cell. 2006, 17, 3578-3590). All experiments were repeated at least three times in triplicate.

T6 sequence (P30874 whole entry): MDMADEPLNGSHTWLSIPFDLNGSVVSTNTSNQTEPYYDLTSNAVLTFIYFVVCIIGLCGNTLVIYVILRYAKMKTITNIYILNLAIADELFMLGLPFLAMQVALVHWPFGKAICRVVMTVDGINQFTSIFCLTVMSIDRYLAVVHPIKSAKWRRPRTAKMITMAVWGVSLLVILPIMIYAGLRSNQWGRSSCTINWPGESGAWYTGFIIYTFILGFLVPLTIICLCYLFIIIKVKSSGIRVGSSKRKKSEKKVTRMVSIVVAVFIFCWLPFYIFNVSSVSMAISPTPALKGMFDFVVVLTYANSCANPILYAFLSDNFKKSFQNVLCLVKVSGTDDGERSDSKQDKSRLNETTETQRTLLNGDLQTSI
T3 sequence (P32745 whole entry): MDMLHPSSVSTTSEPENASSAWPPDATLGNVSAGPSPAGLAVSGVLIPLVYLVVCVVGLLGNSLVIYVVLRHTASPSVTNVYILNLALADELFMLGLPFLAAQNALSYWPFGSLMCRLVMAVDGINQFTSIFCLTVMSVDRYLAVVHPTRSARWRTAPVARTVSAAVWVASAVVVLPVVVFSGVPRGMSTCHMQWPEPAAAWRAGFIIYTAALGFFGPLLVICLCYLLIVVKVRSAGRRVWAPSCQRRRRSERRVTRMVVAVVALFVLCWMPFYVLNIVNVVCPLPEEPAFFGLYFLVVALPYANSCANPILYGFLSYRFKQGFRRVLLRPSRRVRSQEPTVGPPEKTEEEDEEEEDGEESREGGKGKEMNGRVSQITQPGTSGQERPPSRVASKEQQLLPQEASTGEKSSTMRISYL
Sequence of sst2 (P30874 whole entry): as the sequence (P30874 whole entry) above
T2 sequence (P30874 whole entry): as above
T5 sequence (P35346 whole entry): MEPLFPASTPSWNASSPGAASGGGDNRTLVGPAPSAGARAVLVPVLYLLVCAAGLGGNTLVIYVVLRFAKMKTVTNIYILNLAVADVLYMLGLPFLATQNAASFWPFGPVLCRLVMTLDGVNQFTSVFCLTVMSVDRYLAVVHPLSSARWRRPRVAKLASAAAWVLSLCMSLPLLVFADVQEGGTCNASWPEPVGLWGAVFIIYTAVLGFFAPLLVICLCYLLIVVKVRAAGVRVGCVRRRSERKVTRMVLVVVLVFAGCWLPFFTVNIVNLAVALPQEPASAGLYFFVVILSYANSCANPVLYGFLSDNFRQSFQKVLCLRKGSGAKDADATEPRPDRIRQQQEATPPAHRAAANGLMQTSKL
T1 sequence (P30872 whole entry): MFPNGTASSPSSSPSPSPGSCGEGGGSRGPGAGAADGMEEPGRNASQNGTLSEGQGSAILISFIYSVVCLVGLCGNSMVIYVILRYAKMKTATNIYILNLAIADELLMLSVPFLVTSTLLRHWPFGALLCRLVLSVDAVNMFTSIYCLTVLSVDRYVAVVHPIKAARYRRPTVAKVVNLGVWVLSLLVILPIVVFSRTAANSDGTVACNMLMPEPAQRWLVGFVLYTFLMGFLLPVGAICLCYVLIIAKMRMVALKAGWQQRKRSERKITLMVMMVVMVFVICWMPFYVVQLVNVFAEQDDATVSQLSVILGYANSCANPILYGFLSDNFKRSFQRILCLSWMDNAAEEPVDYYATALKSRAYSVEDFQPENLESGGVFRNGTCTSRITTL
T4 sequence (P31391 whole entry): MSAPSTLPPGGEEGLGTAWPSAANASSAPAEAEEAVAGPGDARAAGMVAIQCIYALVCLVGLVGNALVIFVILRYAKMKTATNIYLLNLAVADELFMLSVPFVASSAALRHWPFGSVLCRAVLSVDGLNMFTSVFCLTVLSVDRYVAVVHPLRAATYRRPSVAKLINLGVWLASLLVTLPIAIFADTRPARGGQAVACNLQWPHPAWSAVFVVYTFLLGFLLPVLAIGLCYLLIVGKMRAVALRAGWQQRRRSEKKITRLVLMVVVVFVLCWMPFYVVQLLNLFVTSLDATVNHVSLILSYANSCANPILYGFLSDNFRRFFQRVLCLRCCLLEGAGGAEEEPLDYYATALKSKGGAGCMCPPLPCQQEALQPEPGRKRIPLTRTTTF

Row | SMILES | IC50 (hSSTR1) | IC50 (hSSTR2; Table 3, mean ± SEM when N ≧ 3, read-out: sst2 binding affinity (IC50)) | IC50 (hSSTR3) | IC50 (hSSTR4) | IC50 (hSSTR5) | sst2-internalization tested in vitro in HEK-sst2 cells (function) (human sst2A receptor) | Calcium release tested in vitro in HEK-sst2 cells (function) (sst2) | loss of binding affinity for sst2 as compared to 7 (hSSTR2)
1 | C[C@@H](O)[C@@H]1NC(=O)[C@H](CCCCN)NC(=O)[C@@H](Cc2c[nH]c3ccccc23)NC(=O)[C@H](Cc2ccc(O)cc2)NC(=O)[C@H](NC(=O)[C@H](Cc2ccc([N+](=O)[O-])cc2)NC(=O)CN2CCN(CC(=O)O)CCN(CC(=O)O)CCN(CC(=O)O)CC2)CSSC[C@@H](C(=O)N[C@H](Cc2ccc(O)cc2)C(N)=O)NC1=O [compound 2, DOTA-pNO2Phe-c[DCys-Tyr-DTrp-Lys-Thr-Cys]-DTyr-NH2] | > 1000 nM | 1.5 nM | > 1000 nM | 287 ± 27 nM | > 1000 nM | Antagonist | Antagonist | 
2 | C[C@@H](O)[C@@H]1NC(=O)[C@H](CCCCN)NC(=O)[C@@H](Cc2c[nH]c3ccccc23)NC(=O)[C@H](Cc2ccc(NC(N)=O)cc2)NC(=O)[C@H](NC(=O)[C@@H](N)Cc2ccc(Cl)cc2)CSSC[C@@H](C(=O)N[C@@H](Cc2ccc3ccccc3c2)C(N)=O)NC1=O [compound 12, H2N-Cpa-c[DCys-Aph(Cbm)-DTrp-Lys-Thr-Cys]-2Nal-NH2] |  |  |  |  |  | Antagonist | Antagonist | 
3 | C[C@@H](O)[C@@H]1NC(=O)[C@H](CCCCN)NC(=O)[C@@H](Cc2c[nH]c3ccccc23)NC(=O)[C@H](N(C)C(=O)c2ccccc2)NC(=O)[C@H](NC(=O)[C@@H](N)Cc2ccc(Cl)cc2)CSSC[C@@H](C(=O)N[C@@H](Cc2ccc3ccccc3c2)C(N)=O)NC1=O [compound 9, H2N-Cpa-c[DCys-L-Agl(NMe.benzoyl)-DTrp-Lys-Thr-Cys]-2Nal-NH2] |  |  |  |  |  | Antagonist |  | 3 fold
4 | CC(=O)N[C@@H](Cc1ccc([N+](=O)[O-])cc1)C(=O)N[C@@H]1CSSC[C@@H](C(=O)N[C@H](Cc2ccc(O)cc2)C(N)=O)NC(=O)[C@H]([C@@H](C)O)NC(=O)[C@H](CCCCN)NC(=O)[C@@H](Cc2c[nH]c3ccccc23)NC(=O)[C@H](Cc2ccc(O)cc2)NC1=O [compound 1, Ac-pNO2Phe-c[DCys-Tyr-DTrp-Lys-Thr-Cys]-DTyr-NH2, reference compound] |  |  | > 1000 nM |  |  | Antagonist |  | 
